These are literature values, as cited in patent publication US6451357B1, “Method for purification of aloesin” (Unigen Pharmaceuticals, Inc., priority 2001, dated 2002).

Series [1] concerns de-pigmentation of the skin. The conditions noted are these: relative to hydroquinone.
For series [2], the system named is tyrosinase. The note with it: Lineweaver Burk diagram.
For series [3], the system named is tyrosinase. The conditions noted are these: in vitro.

For the molecule `O=C1O[C@H]([C@@H](O)CO)C(O)=C1O` [ascorbic acid], the “quantity required to achieve a similar effect compared to the quantity of hydroquinone used” value in series [1] is given as 17 times. As to `COc1cc(/C=C/C(=O)O[C@@H]2[C@@H](O)[C@H](O)[C@@H](CO)O[C@H]2c2c(O)cc(C)c3c(=O)cc(CC(C)=O)oc23)ccc1O` [2″-feruloylaloesin, 2″-O-feruloylaloesin], the “type of tyrosinase inhibition” value in the series with tyrosinase [2] is “non-competitive inhibitor”.

`OC[C@H]1O[C@@H](Oc2ccc(O)cc2)[C@H](O)[C@@H](O)[C@@H]1O` [arbutin]: the “quantity required to achieve a similar effect compared to the quantity of hydroquinone used” value in series [1] is recorded as “over 100 times”. As to `CC(=O)Cc1cc(=O)c2c(C)cc(O)c([C@@H]3O[C@H](CO)[C@@H](O)[C@H](O)[C@H]3O)c2o1` [aloesin], in the series with tyrosinase [3], the “tyrosinase inhibition in words” value was “strong inhibitor”. Further, on tyrosinase [3] (substrate L-DOPA, read-out: concentration capable of 50% inhibition of tyrosinase activity), the IC50 is 200 µM. Further, in the series on tyrosinase [2], the “type of tyrosinase inhibition” value was “competitive inhibitor”.
